Laboratory results reported in PubChem BioAssay AID248 (DTP/NCI, 2004).
Values joined by “and” are separate entries in the source; they are usually repeats but may differ in a detail not shown here. Equal values may be shown once. Toxic doses and inconclusive results are not listed. Rule as the data show it: active = T/C of 150% or more; inactive = T/C below 125%.

Test system: L1210 leukemia ip in BDF1 mice, survival T/C
Experiment: NCI In Vivo Anticancer Drug Screen. Data for tumor model L1210 Leukemia (intraperitoneal) in B6D2F1 (BDF1) mice
Conditions: endpoint: mean survival time, higher = longer survival
Summary of the method: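 Mice bearing the transplanted tumor received compound or vehicle. Survival of the treated group was divided by that of the vehicle-treated control group to give the ratio.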

[1] = dose: 100.0 mg/kg/injection, schedule: Q01DX001 (ip), vehicle: carboxymethylcellulose (CMC)
[2] = dose: 200.0 mg/kg/injection, schedule: Q01DX001 (ip), vehicle: carboxymethylcellulose (CMC)
[3] = dose: 50.0 mg/kg/injection, schedule: Q01DX009 (ip), vehicle: saline with Tween-80
[4] = dose: 100.0 mg/kg/injection, schedule: Q01DX009 (ip), vehicle: saline with Tween-80
[5] = dose: 50.0 mg/kg/injection, schedule: Q04DX003 (ip), vehicle: Klucel (hydroxypropylcellulose) (HPC)
[6] = dose: 100.0 mg/kg/injection, schedule: Q01DX001 (ip), vehicle: saline
[7] = dose: 100.0 mg/kg/injection, schedule: Q04DX003 (ip), vehicle: Klucel (hydroxypropylcellulose) (HPC)
[8] = dose: 200.0 mg/kg/injection, schedule: Q01DX001 (ip), vehicle: saline
[9] = dose: 400.0 mg/kg/injection, schedule: Q01DX001 (ip), vehicle: saline
[10] = dose: 400.0 mg/kg/injection, schedule: Q04DX003 (ip), vehicle: Klucel (hydroxypropylcellulose) (HPC)
[11] = dose: 100.0 mg/kg/injection, schedule: Q01DX009 (ip), vehicle: Klucel (hydroxypropylcellulose) (HPC)
[12] = dose: 200.0 mg/kg/injection, schedule: Q01DX009 (ip), vehicle: Klucel (hydroxypropylcellulose) (HPC)
[13] = dose: 200.0 mg/kg/injection, schedule: Q04DX003 (ip), vehicle: Klucel (hydroxypropylcellulose) (HPC)
[14] = dose: 400.0 mg/kg/injection, schedule: Q01DX009 (ip), vehicle: Klucel (hydroxypropylcellulose) (HPC)
[15] = dose: 50.0 mg/kg/injection, schedule: Q01DX009 (ip), vehicle: Klucel (hydroxypropylcellulose) (HPC)
[16] = dose: 50.0 mg/kg/injection, schedule: Q04DX003 (ip), vehicle: saline with Tween-80
[17] = dose: 100.0 mg/kg/injection, schedule: Q04DX003 (ip), vehicle: saline with Tween-80
[18] = dose: 25.0 mg/kg/injection, schedule: Q01DX009 (ip), vehicle: acetone
[19] = dose: 50.0 mg/kg/injection, schedule: Q01DX009 (ip), vehicle: acetone
[20] = dose: 100.0 mg/kg/injection, schedule: Q01DX009 (ip), vehicle: acetone

Measured: T/C

COc1cc(NC(=O)Nc2c(C)cc(I)cc2C(=O)O)c(I)cc1I
inactive: dose: 75.0 mg/kg/injection, schedule: Q01DX001 (ip), vehicle: other 87 % of control | dose: 150.0 mg/kg/injection, schedule: Q01DX001 (ip), vehicle: other 92 % of control | dose: 300.0 mg/kg/injection, schedule: Q01DX001 (ip), vehicle: other 91 % of control

CC(C)/C=C/C1(C(C)C)C(=O)NC(=O)NC1=O
inactive: dose: 75.0 mg/kg/injection, schedule: Q01DX001 (ip), vehicle: carboxymethylcellulose (CMC) 94 % of control | dose: 150.0 mg/kg/injection, schedule: Q01DX001 (ip), vehicle: carboxymethylcellulose (CMC) 94 % of control

OC(OCC(COC(O)C(Br)Br)(COC(O)C(Br)Br)COC(O)C(Br)Br)C(Br)Br (configuration not stated)
inactive: dose: 50.0 mg/kg/injection, schedule: Q01DX001 (ip), vehicle: carboxymethylcellulose (CMC) 101 % of control | [1] 95 % of control | [2] 92 % of control | dose: 400.0 mg/kg/injection, schedule: Q01DX001 (ip), vehicle: carboxymethylcellulose (CMC) 95 % of control

Cc1ccc(NC(=O)Nc2cccc3ccccc23)cc1
inactive: dose: 12.0 mg/kg/injection, schedule: Q01DX009 (ip), vehicle: gum acacia 108 % of control | dose: 12.5 mg/kg/injection, schedule: Q04DX003 (ip), vehicle: gum acacia 91 % of control | dose: 25.0 mg/kg/injection, schedule: Q01DX009 (ip), vehicle: gum acacia 103 % of control | dose: 25.0 mg/kg/injection, schedule: Q04DX003 (ip), vehicle: gum acacia 93 % of control | dose: 50.0 mg/kg/injection, schedule: Q01DX009 (ip), vehicle: gum acacia 94 % of control | dose: 50.0 mg/kg/injection, schedule: Q04DX003 (ip), vehicle: gum acacia 98 % of control

S=C(NCCNC(=S)Nc1ccccc1)Nc1ccccc1
inactive: [3] 98 % of control | [4] 92 % of control | dose: 200.0 mg/kg/injection, schedule: Q01DX009 (ip), vehicle: saline with Tween-80 92 % of control

COc1ccc(C(O)CNC(=O)c2ccccc2)cc1 (configuration not stated)
inactive: dose: 25.0 mg/kg/injection, schedule: Q04DX003 (ip), vehicle: Klucel (hydroxypropylcellulose) (HPC) 102 % of control | [5] 97 % of control | [6] 96 % of control | [7] 87 % of control | [8] 104 % of control | [9] 98 % of control | [10] 109 % of control

CCCCn1cnc2c(=O)n(C)c(=O)n(C)c21
inactive: [6] 96 % of control | [8] 94 % of control

NC(=S)NNC(=O)c1ccncc1
inactive: [6] 96 % of control | [8] 96 % of control | [9] 91 % of control

CC1([N+](=O)[O-])COP(=O)(Nc2ccc(F)cc2)OC1 (configuration not stated)
inactive: [1] 100 % of control | [2] 94 % of control

CC(C)C(NC(=O)c1ccccc1)C(=O)O (configuration not stated)
inactive: [11] 92 % of control | [7] 96 % of control | [12] 98 % of control | [13] 113 % of control | [14] 96 % of control | [10] 100 % of control

O=Cc1ccc(N2CCOCC2)cc1
inactive: [15] 97 % of control | [11] 97 % of control | [12] 106 % of control | [14] 97 % of control

CN(C)S(=O)(=O)c1ccc(NC(=O)OCc2ccccc2)cc1
inactive: [6] 96 % of control | [8] 94 % of control | [9] 92 % of control

Clc1ccccc1-c1ncc2cnccn12
inactive: dose: 25.0 mg/kg/injection, schedule: Q01DX009 (ip), vehicle: saline with Tween-80 98 % of control | dose: 25.0 mg/kg/injection, schedule: Q04DX003 (ip), vehicle: saline with Tween-80 90 % of control | [3] 101 % of control | [16] 102 % of control | [4] 107 % of control | [17] 96 % of control and 92 % of control

c1ccc([P+](c2ccccc2)(c2ccccc2)c2ccccc2)cc1
inactive: dose: 2.5 mg/kg/injection, schedule: Q01DX009 (ip), vehicle: saline 110 % of control | dose: 2.5 mg/kg/injection, schedule: Q04DX003 (ip), vehicle: saline 103 % of control | dose: 5.0 mg/kg/injection, schedule: Q01DX001 (ip), vehicle: saline 110 % of control | dose: 5.0 mg/kg/injection, schedule: Q01DX009 (ip), vehicle: saline 114 % of control | dose: 5.0 mg/kg/injection, schedule: Q04DX003 (ip), vehicle: saline 106 % of control | dose: 10.0 mg/kg/injection, schedule: Q01DX001 (ip), vehicle: saline 94 % of control | dose: 10.0 mg/kg/injection, schedule: Q04DX003 (ip), vehicle: saline 109 % of control

Cc1ccc([N+](=O)[O-])cc1NC(=O)NCc1cccnc1
inactive: [11] 95 % of control | [12] 87 % of control | [14] 92 % of control

CCCCC/C(C)=N\Nc1ccccn1
inactive: dose: 12.5 mg/kg/injection, schedule: Q01DX009 (ip), vehicle: Klucel (hydroxypropylcellulose) (HPC) 98 % of control | dose: 25.0 mg/kg/injection, schedule: Q01DX009 (ip), vehicle: Klucel (hydroxypropylcellulose) (HPC) 100 % of control | [18] 97 % of control | dose: 50.0 mg/kg/injection, schedule: Q01DX001 (ip), vehicle: acetone 100 % of control | [15] 104 % of control | [19] 100 % of control | [5] 95 % of control | [16] 100 % of control | dose: 100.0 mg/kg/injection, schedule: Q01DX001 (ip), vehicle: acetone 102 % of control | [20] 88 % of control | [7] 101 % of control | [17] 100 % of control | dose: 200.0 mg/kg/injection, schedule: Q01DX001 (ip), vehicle: acetone 94 % of control | [13] 106 % of control

OCC(Oc1ccccc1)C(O)C(O)C(CO)Oc1ccccc1 (configuration not stated)
inactive: [11] 103 % of control | [12] 103 % of control | [14] 95 % of control

CCCCN=C(N)CCl
inactive: dose: 25.0 mg/kg/injection, schedule: Q04DX002 (ip), vehicle: saline 106 % of control | dose: 50.0 mg/kg/injection, schedule: Q04DX002 (ip), vehicle: saline 95 % of control | dose: 100.0 mg/kg/injection, schedule: Q04DX002 (ip), vehicle: saline 124 % of control

O=C(c1ccc([N+](=O)[O-])cc1)C(Br)C(Br)c1ccncc1 (configuration not stated)
inactive: [11] 89 % of control | [12] 89 % of control | [14] 93 % of control

C(=C/c1ccnc(/C=C/c2ccccc2)c1)/c1ccccc1
inactive: [18] 97 % of control and 99 % of control | [19] 87 % of control | [6] 91 % of control | [20] 89 % of control and 92 % of control | dose: 100.0 mg/kg/injection, schedule: Q04DX003 (ip), vehicle: acetone 94 % of control | [8] 94 % of control | dose: 200.0 mg/kg/injection, schedule: Q04DX003 (ip), vehicle: acetone 86 % of control | [9] 94 % of control
